Test results as given in patent US7524861B2, “Process for the preparation of a hydrate of an anthranilic acid derivative” (priority 2002, dated 2009).

Assay: Dehydration/re-hydration study (weight change over desiccants, then 33-95% RH, KF water content)
Format: physicochemical
Settings: for KF moisture result: dehydration/rehydration sample
Experimental: The hexahydrate produced in Example 1 was analysed as follows. Four desiccator cabinets were prepared to contain open dishes of the following saturated salt solutions, to achieve the following approximate relative humidities (RH).
Dehydration of samples was carried out by storing them over silica gel or over P2O5 at reduced pressure (65 mm Hg). All studies were performed at ambient laboratory temperature (15-22° C.).
During this study, samples were dispensed to pre-equilibrated weighing bottles as in the hygroscopicity study, and were then stored over silica gel without reduced pressure, then over […] under reduced pressure (65 mm Hg) to dehydrate the hydrate. Once a stable weight was achieved over P2O5, samples were re-hydrated by storing them at 33% RH to 95% RH, in parallel with the hygroscopicity study as described above.
Water contents were measured by coulometric KF (Karl Fischer) titration.

Cumulative % change Dehydration/Rehydration (75% RH, cumulative time 2441.25 h): 1.26%
Cumulative % change Dehydration/Rehydration (75% RH, cumulative time 2482.00 h): 1.23%
Cumulative % change Dehydration/Rehydration (75% RH, cumulative time 2577.75 h): 1.35%
Cumulative % change Dehydration/Rehydration (75% RH, cumulative time 2609.75 h): 1.38%
Cumulative % change Dehydration/Rehydration (75% RH, cumulative time 2681.25 h): 1.41%
Cumulative % change Dehydration/Rehydration (75% RH, cumulative time 2770.25 h): 1.36%
Cumulative % change Dehydration/Rehydration (75% RH, cumulative time 2817.75 h): 1.44%
Cumulative % change Dehydration/Rehydration (95% RH, cumulative time 2825.25 h): 2.28%
Cumulative % change Dehydration/Rehydration (95% RH, cumulative time 2841.75 h): 2.73%
Cumulative % change Dehydration/Rehydration (95% RH, cumulative time 2915.75 h): 3.06%
Cumulative % change Dehydration/Rehydration (95% RH, cumulative time 2937.75 h): 3.21%
Cumulative % change Dehydration/Rehydration (95% RH, cumulative time 2991.25 h): 3.25%
Cumulative % change Dehydration/Rehydration (95% RH, cumulative time 3082.25 h): 3.86%
Cumulative % change Dehydration/Rehydration (95% RH, cumulative time 3130.00 h): 4.12%
Cumulative % change Dehydration/Rehydration (95% RH, cumulative time 3182.25 h): 3.99%
Cumulative % change Dehydration/Rehydration (95% RH, cumulative time 3252.25 h): 4.19%
Cumulative % change Dehydration/Rehydration (95% RH, cumulative time 3350.25 h): 4.22%
Cumulative % change Dehydration/Rehydration (95% RH, cumulative time 3422.25 h): 4.35%
Cumulative % change Dehydration/Rehydration (95% RH, cumulative time 3636.25 h): 5.31%
Cumulative % change Dehydration/Rehydration (95% RH, cumulative time 4332.75 h): 5.58%
Cumulative % change Dehydration/Rehydration (P2O5 with vacuum, cumulative time 425.00 h): −10.85%
Cumulative % change Dehydration/Rehydration (P2O5 with vacuum, cumulative time 452.00 h): −11.00%
Cumulative % change Dehydration/Rehydration (P2O5 with vacuum, cumulative time 476.75 h): −11.19%
Cumulative % change Dehydration/Rehydration (P2O5 with vacuum, cumulative time 570.25 h): −11.43%
Cumulative % change Dehydration/Rehydration (P2O5 with vacuum, cumulative time 641.00 h): −11.35%
Cumulative % change Dehydration/Rehydration (P2O5 with vacuum, cumulative time 760.50 h): −11.51%
Cumulative % change Dehydration/Rehydration (P2O5 with vacuum, cumulative time 904.25 h): −11.46%
Cumulative % change Dehydration/Rehydration (P2O5 with vacuum, cumulative time 1071.00 h): −11.54%
Cumulative % change Dehydration/Rehydration (P2O5 with vacuum, cumulative time 1144.00 h): −11.48%
initial water content of the sample (before dehydration): 12.5%
notional water content after dehydration and re-hydration at 33% RH (corresponding to the net weight change): about 11.5%
net weight change after dehydration and re-hydration at 33% RH (dehydrated then re-hydrated at 33% RH): about −1%
final weight change on dehydration (dehydration over increasing desiccating conditions): −11.5%
KF moisture result (95% RH, cumulative time 4332.75 h (end)): (15.81) % w/w
KF moisture result (printed in first 33% RH row (1147.25 h), after dehydration over P2O5): (3.82) % w/w
KF moisture result (printed in first row (silica, no vacuum, 3.00 h), initial value before dehydration): (12.53) % w/w
Cumulative % change Dehydration/Rehydration (re-hydration at 33% RH, cumulative time 1147.25 h): −6.61%
Cumulative % change Dehydration/Rehydration (re-hydration at 33% RH, cumulative time 1150.75 h): −4.80%
Cumulative % change Dehydration/Rehydration (re-hydration at 33% RH, cumulative time 1168.00 h): −2.47%
Cumulative % change Dehydration/Rehydration (re-hydration at 33% RH, cumulative time 1240.75 h): −0.68%
Cumulative % change Dehydration/Rehydration (re-hydration at 33% RH, cumulative time 1268.50 h): −0.62%
Cumulative % change Dehydration/Rehydration (re-hydration at 33% RH, cumulative time 1312.50 h): −0.62%
Cumulative % change Dehydration/Rehydration (re-hydration at 33% RH, cumulative time 1431.25 h): −0.83%
Cumulative % change Dehydration/Rehydration (re-hydration at 33% RH, cumulative time 1502.25 h): −0.66%
Cumulative % change Dehydration/Rehydration (re-hydration at 33% RH, cumulative time 1672.50 h): −0.91%
Cumulative % change Dehydration/Rehydration (re-hydration at 33% RH, cumulative time 1741.50 h): −0.97%
Cumulative % change Dehydration/Rehydration (silica, no vacuum, cumulative time 3.00 h): −2.29%
Cumulative % change Dehydration/Rehydration (silica, no vacuum, cumulative time 8.50 h): −3.58%
Cumulative % change Dehydration/Rehydration (silica, no vacuum, cumulative time 24.50 h): −5.92%
Cumulative % change Dehydration/Rehydration (silica, no vacuum, cumulative time 30.50 h): −6.39%
Cumulative % change Dehydration/Rehydration (silica, no vacuum, cumulative time 56.00 h): −8.06%
Cumulative % change Dehydration/Rehydration (silica, no vacuum, cumulative time 80.00 h): −8.50%
Cumulative % change Dehydration/Rehydration (silica, no vacuum, cumulative time 237.50 h): −8.96%
Cumulative % change Dehydration/Rehydration (silica, no vacuum, cumulative time 288.50 h): −9.07%
Cumulative % change Dehydration/Rehydration (silica, with vacuum, cumulative time 308.00 h): −9.07%
Cumulative % change Dehydration/Rehydration (silica, with vacuum, cumulative time 401.00 h): −8.76%
Compound: COc1cc2c(cc1OC)CN(CCc1ccc(NC(=O)c3cc(OC)c(OC)cc3NC(=O)c3cnc4ccccc4c3)cc1)CC2 [Example 1, Quinoline-3-carboxylic acid (2-{4-[2-(6,7-dimethoxy-3,4-dihydro-1H-isoquinolin-2-yl)-ethyl]-phenylcarbamoyl}-4,5-dimethoxy-phenyl)-amide]
